The target in this test is T1, androgenic receptors (rat prostate cytosol) (Rattus norvegicus, UniProt P15207).
T1 construct: from tissue; host or cells: prostate cytosol (209,000 g supernatant) of castrated male Sprague Dawley EOPS rats
T1 sequence (P15207 1-902): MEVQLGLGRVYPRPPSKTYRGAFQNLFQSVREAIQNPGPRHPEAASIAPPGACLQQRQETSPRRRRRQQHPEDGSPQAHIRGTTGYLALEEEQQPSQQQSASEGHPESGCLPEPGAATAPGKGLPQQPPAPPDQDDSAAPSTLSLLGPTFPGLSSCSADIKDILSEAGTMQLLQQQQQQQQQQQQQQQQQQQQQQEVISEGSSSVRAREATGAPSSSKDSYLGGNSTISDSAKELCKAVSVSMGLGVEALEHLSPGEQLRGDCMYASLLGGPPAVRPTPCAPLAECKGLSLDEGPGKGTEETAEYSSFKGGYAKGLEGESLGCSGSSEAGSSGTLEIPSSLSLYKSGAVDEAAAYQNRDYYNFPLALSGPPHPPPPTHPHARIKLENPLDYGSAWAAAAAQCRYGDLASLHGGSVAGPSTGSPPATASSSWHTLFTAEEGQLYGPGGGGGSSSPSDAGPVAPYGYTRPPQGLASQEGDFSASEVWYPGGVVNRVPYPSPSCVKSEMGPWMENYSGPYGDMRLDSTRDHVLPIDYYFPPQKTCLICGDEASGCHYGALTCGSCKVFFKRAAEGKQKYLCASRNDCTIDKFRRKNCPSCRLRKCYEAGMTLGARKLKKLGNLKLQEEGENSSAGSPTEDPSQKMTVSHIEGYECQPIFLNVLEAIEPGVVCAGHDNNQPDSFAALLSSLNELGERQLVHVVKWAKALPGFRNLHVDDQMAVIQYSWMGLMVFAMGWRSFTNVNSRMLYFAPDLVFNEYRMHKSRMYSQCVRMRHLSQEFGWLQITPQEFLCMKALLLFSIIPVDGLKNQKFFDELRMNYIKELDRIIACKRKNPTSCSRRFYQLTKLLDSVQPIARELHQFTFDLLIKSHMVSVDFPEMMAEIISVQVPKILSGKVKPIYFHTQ
Briefly: Study of androgenic receptors: relative binding affinity (RBA) versus tritiated testosterone in prostate cytosol of castrated rats. Also on record: species or system male rats of the Sprague Dawley EOPS strain. To be noted: 24 H incubation; testosterone=100; RBA=100(CH)/(CX). Here is the method: Male rats of the Sprague Dawley EOPS strain weighing 180 to 200 g, castrated 24 hours previously, were killed and the prostate was removed, weighed and homogenized at 0° C. with a potter glass in a buffered solution (Tris 10 mM, saccharose 0.25M, PMSF (phenyl methane sulfonyl fluoride) 0.1 mM, sodium molybdate 20 mM, HCl pH 7.4 into which was added extemporaneously […] of DTT (DL dithiothreitol) at a rate of 1 g of tissue per 8 ml of buffer solution. The homogenate was then ultracentrifuged at 0° C. for 30 minutes at 209,000 g and the aliquots of supernatant (=cytosol) were incubated for 30 minutes and 24 hours with a concentration (T) of tritiated testosterone and in the presence of increasing concentrations (0 to 2500×10^-9 M) of cold testosterone or the test products. The concentration of bound tritiated testosterone (B) was then measured for each incubate by adsorption method of carbon-dextran. The relative affinity of bonding (RBA) was calculated.
The following two curves were graphed: the percentage of the bound tritiated hormone B/T as a logarithmic function of the concentration of the cold hormone and B/T as a logarithmic function of the concentration of the tested cold product. The line of the equation I50 =(B/Tmax+B/Tmin)/2 was determined.
B/T max=% of the bound tritiated hormone for an incubation of this tritiated hormone at concentration (T). […]

Consider `CN1C(=S)N(c2ccc(C#N)c(C(F)(F)F)c2)C(=O)C12CCCC2` [Example 3, 4-(1-methyl-4-oxo-2-thioxo-1,3-diazaspiro(4,4)nonan-3-yl)-2-trifluoromethyl-benzonitrile], for which the “relative affinity of bonding (RBA)” value was 27.

In the case of `CCC1(CC)C(=O)N(c2ccc(C#N)c(C(F)(F)F)c2)C(=S)N1C` [Example 5, 4-(4,4-diethyl-3-methyl-5-oxo-2-thioxo-1-imidazolidinyl)-2-trifluoromethyl-benzonitrile], the “relative affinity of bonding (RBA)” value is 8.
